Data reported in ChEMBL document CHEMBL1146065, “Structure-based optimization of azole antifungal agents by CoMFA, CoMSIA, and molecular docking” (2006).
Converted amounts (≈) assume the structure as drawn.

What was measured:
Type in all cases: functional
Candida albicans = test: Antifungal activity against Candida albicans
Cryptococcus neoformans = test: Antifungal activity against Cryptococcus neoformans
Fonsecaea pedrosoi = test: Antifungal activity against Fonsecaea pedrosoi
Candida parapsilosis = test: Antifungal activity against Candida parapsilosis; conditions: Lodderomyces parapsilosis
Sporothrix schenckii = test: Antifungal activity against Sporothrix schenckii
Aspergillus fumigatus = test: Antifungal activity against Aspergillus fumigatus
Trichophyton rubrum = test: Antifungal activity against Trichophyton rubrum
Candida tropicalis = test: Antifungal activity against Candida tropicalis

Row | Structure (SMILES) | MIC80 (Candida albicans) | MIC80 (Cryptococcus neoformans) | MIC80 (Fonsecaea pedrosoi) | MIC80 (Candida parapsilosis) | MIC80 (Sporothrix schenckii) | MIC80 (Aspergillus fumigatus) | MIC80 (Trichophyton rubrum) | MIC80 (Candida tropicalis)
1 | CN(Cc1ccc(-n2cnn(Cc3cccc(Cl)c3)c2=O)cc1)CC(O)(Cn1cncn1)c1ccc(F)cc1F (centres undefined) | 0.016 µg/mL | 0.5 µg/mL (≈ 0.883 µM) | 0.125 µg/mL (≈ 0.221 µM) | 4 µg/mL (≈ 7.07 µM) | 32 µg/mL (≈ 56.5 µM) | 8 µg/mL (≈ 14.1 µM) | 0.5 µg/mL (≈ 0.883 µM) | 0.5 µg/mL (≈ 0.883 µM)
2 | CN(Cc1ccc(-n2cnn(CC(=O)c3ccc(Br)cc3)c2=O)cc1)CC(O)(Cn1cncn1)c1ccc(F)cc1F (centres undefined) | 0.002 µg/mL | 0.25 µg/mL (≈ 0.392 µM) | 0.0625 µg/mL (≈ 0.0979 µM) | 1 µg/mL (≈ 1.57 µM) | 64 µg/mL (≈ 100 µM) | 16 µg/mL (≈ 25.1 µM) | 0.25 µg/mL (≈ 0.392 µM) | 0.0625 µg/mL (≈ 0.0979 µM)
3 | COc1ccc(C(=O)N2CCN(CC(O)(Cn3cncn3)c3ccc(F)cc3F)CC2)cc1 (centres undefined) | 0.273 µM | – | – | – | – | – | – | –
4 | OC(CN1CCN(Cc2ccc(Br)cc2F)CC1)(Cn1cncn1)c1ccc(F)cc1F (centres undefined) | 0.0612 µM | – | – | – | – | – | – | –
5 | CN(Cc1ccc(-n2cnn(Cc3cccc(I)c3)c2=O)cc1)CC(O)(Cn1cncn1)c1ccc(F)cc1F (centres undefined) | 0.002 µg/mL | 0.25 µg/mL (≈ 0.38 µM) | 0.0625 µg/mL (≈ 0.0951 µM) | 0.008 µg/mL (≈ 0.0122 µM) | 64 µg/mL (≈ 97.3 µM) | 2 µg/mL (≈ 3.04 µM) | 0.25 µg/mL (≈ 0.38 µM) | 0.0625 µg/mL (≈ 0.0951 µM)
6 | O=[N+]([O-])c1ccc(Cl)c(CN2CCN(CC(O)(Cn3cncn3)c3ccc(F)cc3F)CC2)c1 (centres undefined) | 0.254 µM | – | – | – | – | – | – | –
7 | O=Cc1ccc(N2CCN(CC(O)(Cn3cncn3)c3ccc(F)cc3F)CC2)cc1 (centres undefined) | 0.035 µM | – | – | – | – | – | – | –
8 | OC(CN1CCN(Cc2ccc(F)cc2Br)CC1)(Cn1cncn1)c1ccc(F)cc1F (centres undefined) | 0.122 µM | – | – | – | – | – | – | –
9 | COc1ccc(C(=O)Cn2ncn(-c3ccc(CN(C)CC(O)(Cn4cncn4)c4ccc(F)cc4F)cc3)c2=O)cc1 (centres undefined) | 0.016 µg/mL | 8 µg/mL (≈ 13.6 µM) | 1 µg/mL (≈ 1.7 µM) | 0.03 µg/mL (≈ 0.0509 µM) | 64 µg/mL (≈ 109 µM) | 32 µg/mL (≈ 54.3 µM) | 4 µg/mL (≈ 6.78 µM) | 0.125 µg/mL (≈ 0.212 µM)
10 | OC(CN1CCN(c2cccc(C(F)(F)F)c2)CC1)(Cn1cncn1)c1ccc(F)cc1F (centres undefined) | 0.032 µM | – | – | – | – | – | – | –
11 | CCc1ccc(C(=O)Cn2ncn(-c3ccc(CN(C)CC(O)(Cn4cncn4)c4ccc(F)cc4F)cc3)c2=O)cc1 (centres undefined) | 0.25 µg/mL | 16 µg/mL (≈ 27.2 µM) | 8 µg/mL (≈ 13.6 µM) | 2 µg/mL (≈ 3.4 µM) | 64 µg/mL (≈ 109 µM) | 64 µg/mL (≈ 109 µM) | 32 µg/mL (≈ 54.5 µM) | 0.5 µg/mL (≈ 0.851 µM)
12 | CC(C)(C)c1ccc(C(=O)N2CCN(CC(O)(Cn3cncn3)c3ccc(F)cc3F)CC2)cc1 (centres undefined) | 1.03 µM | – | – | – | – | – | – | –
13 | O=C(c1ccc(Cl)cc1)N1CCN(CC(O)(Cn2cncn2)c2ccc(F)cc2F)CC1 (centres undefined) | 0.541 µM | – | – | – | – | – | – | –
14 | O=C(c1ccccc1)N1CCN(CC(O)(Cn2cncn2)c2ccc(F)cc2F)CC1 (centres undefined) | 2.34 µM | – | – | – | – | – | – | –
15 | O=C(c1ccc(F)cc1)N1CCN(CC(O)(Cn2cncn2)c2ccc(F)cc2F)CC1 (centres undefined) | 2.23 µM | – | – | – | – | – | – | –
16 | CN(Cc1cccc(C(F)(F)F)c1)CC(O)(Cn1cncn1)c1ccc(F)cc1F (centres undefined) | 0.032 µg/mL | 0.5 µg/mL (≈ 1.17 µM) | 1 µg/mL (≈ 2.35 µM) | 4 µg/mL (≈ 9.38 µM) | 64 µg/mL (≈ 150 µM) | 64 µg/mL (≈ 150 µM) | 8 µg/mL (≈ 18.8 µM) | 0.25 µg/mL (≈ 0.586 µM)
17 | CN(Cc1ccc(-n2cnn(Cc3ccc([N+](=O)[O-])cc3)c2=O)cc1)CC(O)(Cn1cncn1)c1ccc(F)cc1F (centres undefined) | 0.0625 µg/mL | 16 µg/mL (≈ 27.8 µM) | 4 µg/mL (≈ 6.94 µM) | 0.25 µg/mL (≈ 0.434 µM) | 64 µg/mL (≈ 111 µM) | 64 µg/mL (≈ 111 µM) | 16 µg/mL (≈ 27.8 µM) | 0.0625 µg/mL (≈ 0.108 µM)
18 | OC(CN1CCN(Cc2ccc(F)cc2)CC1)(Cn1cncn1)c1ccc(F)cc1F (centres undefined) | 0.579 µM | – | – | – | – | – | – | –
19 | OC(CN1CCN(c2ccncc2)CC1)(Cn1cncn1)c1ccc(F)cc1F (centres undefined) | 2.5 µM | – | – | – | – | – | – | –
20 | CN(Cc1ccc(-n2cnn(Cc3ccc(Cl)cc3)c2=O)cc1)CC(O)(Cn1cncn1)c1ccc(F)cc1F (centres undefined) | 0.002 µg/mL | 0.5 µg/mL (≈ 0.883 µM) | 0.125 µg/mL (≈ 0.221 µM) | 0.008 µg/mL (≈ 0.0141 µM) | 64 µg/mL (≈ 113 µM) | 4 µg/mL (≈ 7.07 µM) | 0.5 µg/mL (≈ 0.883 µM) | 0.0625 µg/mL (≈ 0.11 µM)
21 | COc1ccccc1C(=O)N1CCN(CC(O)(Cn2cncn2)c2ccc(F)cc2F)CC1 (centres undefined) | 17.5 µM | – | – | – | – | – | – | –
22 | CN(Cc1ccc(C(F)(F)F)cc1)CC(O)(Cn1cncn1)c1ccc(F)cc1F (centres undefined) | 0.031 µg/mL | 0.25 µg/mL (≈ 0.586 µM) | 0.125 µg/mL (≈ 0.293 µM) | 2 µg/mL (≈ 4.69 µM) | 64 µg/mL (≈ 150 µM) | 8 µg/mL (≈ 18.8 µM) | 0.5 µg/mL (≈ 1.17 µM) | 1 µg/mL (≈ 2.35 µM)
23 | OC(CN1CCN(Cc2cc(F)ccc2Br)CC1)(Cn1cncn1)c1ccc(F)cc1F (centres undefined) | 0.122 µM | – | – | – | – | – | – | –
24 | CN(Cc1ccc(-n2cnn(Cc3ccccc3F)c2=O)cc1)CC(O)(Cn1cncn1)c1ccc(F)cc1F (centres undefined) | 0.031 µg/mL | 1 µg/mL (≈ 1.82 µM) | 0.0625 µg/mL (≈ 0.114 µM) | 2 µg/mL (≈ 3.64 µM) | 64 µg/mL (≈ 116 µM) | 32 µg/mL (≈ 58.2 µM) | 1 µg/mL (≈ 1.82 µM) | 0.0625 µg/mL (≈ 0.114 µM)
25 | Cc1ccc(Cn2ncn(-c3ccc(CN(C)CC(O)(Cn4cncn4)c4ccc(F)cc4F)cc3)c2=O)cc1 (centres undefined) | 0.002 µg/mL | 1 µg/mL (≈ 1.83 µM) | 0.25 µg/mL (≈ 0.458 µM) | 0.125 µg/mL (≈ 0.229 µM) | 64 µg/mL (≈ 117 µM) | 32 µg/mL (≈ 58.7 µM) | 1 µg/mL (≈ 1.83 µM) | 0.5 µg/mL (≈ 0.916 µM)
26 | CN(Cc1ccc(-n2cnn(Cc3ccc(C(C)(C)C)cc3)c2=O)cc1)CC(O)(Cn1cncn1)c1ccc(F)cc1F (centres undefined) | 0.031 µg/mL | 2 µg/mL (≈ 3.4 µM) | 0.25 µg/mL (≈ 0.425 µM) | 4 µg/mL (≈ 6.81 µM) | 32 µg/mL (≈ 54.5 µM) | 8 µg/mL (≈ 13.6 µM) | 0.5 µg/mL (≈ 0.851 µM) | 1 µg/mL (≈ 1.7 µM)
27 | O=C(c1ccccc1Cl)N1CCN(CC(O)(Cn2cncn2)c2ccc(F)cc2F)CC1 (centres undefined) | 2.16 µM | – | – | – | – | – | – | –
28 | Cc1ccc(C(=O)N2CCN(CC(O)(Cn3cncn3)c3ccc(F)cc3F)CC2)cc1 (centres undefined) | 18.1 µM | – | – | – | – | – | – | –
29 | CCC(C)n1ncn(-c2ccc(N3CCN(c4ccc(OCC5COC(Cn6cncn6)(c6ccc(Cl)cc6Cl)O5)cc4)CC3)cc2)c1=O (centres undefined) [ITRACONAZOLE] | 0.125 µg/mL | 2 µg/mL (≈ 2.83 µM) | 0.5 µg/mL (≈ 0.709 µM) | 0.25 µg/mL (≈ 0.354 µM) | – | 1 µg/mL (≈ 1.42 µM) | 1 µg/mL (≈ 1.42 µM) | 0.125 µg/mL (≈ 0.177 µM)
